Entries after “also recorded” stand apart in the source; their conditions may differ.
What was measured:
Assay type in all cases: physicochemical
[1] = Stability study of selected solid forms, HPLC purity after 7 days of storage
[2] = Stability study of selected solid forms, XRPD after 7 days of storage
Source text: XRPD diffractograms were collected with a Bruker, D2 Phaser or Panalytical Empyrean X-ray diffractometer. Diffractograms can be read by one of skill in the art, for example, to determine if a chemical sample is the substantially the same, different, or represents a mixture of forms. When a diffractogram is “substantially in accordance” as another diffractogram, a person of skill in the art would regard the samples resulting in the two diffractograms as the same form or same mixture of forms, taking into account minor variations for instrumentation, conditions, and the like.
A stability study comparing amorphous freebase Compound I, Freebase Form II, 2-Napsylate Form I, Fumarate Form I, Succinate Form I, and Camsylate Form I was conducted. HPLC measurements were taken after 7 days of storage at the indicated conditions.

[3] = Form conversion of 2-Napsylate crystalline forms on vacuum drying or in slurry (XRPD); settings: slurry at 50° C., ACN/DMSO (11:1), after 20 days
[4] = Stability of 2-Napsylate Form I under variable humidity (XRPD); settings: RH 10% to 90% at 25° C., every 10% RH, 4 hr equilibration at each step
Procedure: 2-Napsylate Form I was used to test form changes as a function of RH from 10% to 90% at 25° C. The XRPD data was collected every 10% RH (FIG. 20) with an equilibration time of 4 hr at each step.

[5] = Hygroscopicity by DVS, XRPD before and after; settings: two DVS cycles, 0-90% RH
Procedure: Hygroscopicity of 2-Napsylate Forms I and VI were assessed using DVS. Samples of 2-Napyslate Form I and Form VI (7-20 mg) were placed separately into a tared sample chamber and automatically weighed.

[6] = Storage at 40° C. and 75% RH for one week (XRPD)
Procedure: The stability of 2-Napsylate Form I was compared with the stability of 2-[…] Form VI when stored at 40° C. and 75% RH for a period of one week.

[7] = Long term and accelerated stability of 2-Napsylate Form I; settings: for Changes on storage: as of 3 months
Procedure: Samples of 2-Napsylate Form I were further tested for long term and accelerated stability. Samples of the compound are stored at conditions of either 2-8° C. (long term) or 25° C. and 60% RH (accelerated). Stability samples are packaged in double low-density polyethylene (LDPE) bags in a high-density polyethylene (HDPE) outer container.
Samples are tested for appearance, assay, chemical purity, water content, microbial limits, and crystallinity.

Structure (SMILES): Cc1cccnc1-c1ccc(-c2n[nH]c3ncc(-c4ccc5c(c4)CC[C@@H](N4C6COCC4C6)CC5)cc23)nc1 [2-Napsylate Form I]
- HPLC Purity (A %) ([1]; 7 days, 25° C.): 99.82 A %
- HPLC Purity (A %) ([1]; 7 days, 40° C. / 75% RH): 99.35 A %
- HPLC Purity (A %) ([1]; 7 days, 60° C.): 99.21 A %
- Chemical and physical stability compared to the other forms tested ([1]; Example 6 stability study): better chemical and physical stability; also recorded: improved chemical and physical stability
- HPLC Purity (A %) ([1]; T0): 99.82 A %
- XRPD (solid form) ([2]; 7 days, 25° C.): Form I
- XRPD (solid form) ([2]; 7 days, 40° C. / 75% RH): Form I
- XRPD (solid form) ([2]; 7 days, 60° C.): Form I
- XRPD (solid form) ([2]; T0): Form I
- Crystal form after prolonged slurry [3]: Form IV + extra XRPD
- Form change as a function of RH (XRPD) [4]: No form change was observed
- Form change after DVS testing (XRPD) [5]: no form change
- Stability on storage (XRPD) [6]: stable
- Assay ‘anhydrous and solvent-free basis’ (% w/w) ([7]; 2-8° C., 1 month): 96.9 % w/w
- Crystallinity ([7]; 2-8° C., 1 month): Crystalline
- Total impurity (% a/a) ([7]; 2-8° C., 1 month): 1.7 % a/a
- Water content (% w/w) ([7]; 2-8° C., 1 month): 1.2 % w/w
- Assay ‘anhydrous and solvent-free basis’ (% w/w) ([7]; 2-8° C., 3 months): 96.1 % w/w
- Crystallinity ([7]; 2-8° C., 3 months): Crystalline
- Total impurity (% a/a) ([7]; 2-8° C., 3 months): 1.7 % a/a
- Water content (% w/w) ([7]; 2-8° C., 3 months): 1.8 % w/w
- Assay ‘anhydrous and solvent-free basis’ (% w/w) ([7]; 2-8° C., 6 months): 97.7 % w/w
- Crystallinity ([7]; 2-8° C., 6 months): Crystalline
- Total impurity (% a/a) ([7]; 2-8° C., 6 months): 1.4 % a/a
- Water content (% w/w) ([7]; 2-8° C., 6 months): 2.1 % w/w
- Assay ‘anhydrous and solvent-free basis’ (% w/w) ([7]; 2-8° C., Initial): 95.8 % w/w
- Crystallinity ([7]; 2-8° C., Initial): Crystalline
- Total impurity (% a/a) ([7]; 2-8° C., Initial): 1.5 % a/a
- Water content (% w/w) ([7]; 2-8° C., Initial): 0.87 % w/w
- Assay ‘anhydrous and solvent-free basis’ (% w/w) ([7]; 25° C. and 60% RH, 1 month): 96.8 % w/w
- Total impurity (% a/a) ([7]; 25° C. and 60% RH, 1 month): 1.8 % a/a
- Water content (% w/w) ([7]; 25° C. and 60% RH, 1 month): 1.2 % w/w
- Assay ‘anhydrous and solvent-free basis’ (% w/w) ([7]; 25° C. and 60% RH, 3 months): 95.2 % w/w
- Total impurity (% a/a) ([7]; 25° C. and 60% RH, 3 months): 1.8 % a/a
- Water content (% w/w) ([7]; 25° C. and 60% RH, 3 months): 1.6 % w/w
- Assay ‘anhydrous and solvent-free basis’ (% w/w) ([7]; 25° C. and 60% RH, 6 months): 96.2 % w/w
- Total impurity (% a/a) ([7]; 25° C. and 60% RH, 6 months): 1.6 % a/a
- Water content (% w/w) ([7]; 25° C. and 60% RH, 6 months): 2.1 % w/w
- Assay ‘anhydrous and solvent-free basis’ (% w/w) ([7]; 25° C. and 60% RH, Initial): 95.8 % w/w
- Total impurity (% a/a) ([7]; 25° C. and 60% RH, Initial): 1.5 % a/a
- Water content (% w/w) ([7]; 25° C. and 60% RH, Initial): 0.87 % w/w
- Changes on storage ([7]; accelerated (25° C. and 60% RH)): no significant changes
- Changes on storage ([7]; long term (2-8° C.)): no significant changes

Source: patent US20250230173A1, “SALT FORMS OF AN AXL INHIBITOR” (Arcus Biosciences, Inc., priority 2023, published 2025)
